Laboratory results as given in patent US6521407B1, “Methods for determining chemosensitivity of cancer cells based upon expression of negative and positive signal transduction factors” (TheRyte Limited, priority 1998, dated 2003).

What was measured:
Format in all cases: cell-based, human
MGHU1 = assay: Clonogenic cell survival assay (D0.1), MGHU1; settings: MGHU1, p53 wild-type, detectable p21; for Absolute D0.1: dose reducing clonogenic survival to 10% of control, 14 days exposure
Procedure: (§1) The growth characteristics clonogenic assay procedures of the 11 human in vitro cell lines used in this analysis have already been reported e.g. in Britten R. A. and Warenius H., Eur. J. Canc. 29A, 1315-1320 (1993). The cell lines are listed, with their histological classification in Table 4. All are well established; many having been growing in vitro for several years. Cell lines were either donations or purchased by our laboratories. On receipt all were grown for 5 passages to provide sufficient cells for batch storage in liquid nitrogen. During this period contamination was excluded by at least one passage in antibiotic free medium and mycoplasma testing was carried out on all lines. For clonogenic assays, cells were taken from a designated primary liquid nitrogen batch and grown for 3-6 passages until there were sufficient well-growing cells. Further batches from these cells were frozen in liquid nitrogen. Cells were routinely maintained in DMEM medium. All lines were supplemented with 10% heat-inactivated foetal calf serum (HIFCS). […] The D0.1 values were obtained by several independent clonogenic assays and the data fitted by linear regression analysis. The clonogenic assays were repeated until statistically satisfactory fits were achieved on linear regression. The D0.1 values were obtained by interpolation of the linear regression lines. The cytotoxic drug D0.1 values have been normalised and expressed as relative D0.1 values, to enable the relative sensitivity of each cell to each of the drugs to be compared.
(§2) In order to assay CDDP sensitivity 10^2-10^5 cells were plated in 3 ml of Ham's F12 medium supplemented with 10% FCS in 6 well plates and incubated at 37° C. in an atmosphere of 5% CO2 for 8 hours. […] The medium was then removed, the cells were fixed in 70% ethanol and stained with 10% Giemsa and colonies of >100 cells counted. […] CDDP cell survival was determined at the 10% clonogenic cell survival level (D0.1) by interpolation of the fitted regression curve. […]

A431 = assay: Clonogenic cell survival assay (D0.1), A431; settings: A431, p53 mutant, undetectable p21; for Absolute D0.1: dose reducing clonogenic survival to 10% of control, 14 days exposure
Procedure: as §1, §2

HRT18 = assay: Clonogenic cell survival assay (D0.1), HRT18; settings: HRT18, p53 wild-type, detectable p21; for Absolute D0.1: dose reducing clonogenic survival to 10% of control, 14 days exposure
Procedure: as §1, §2

MOR = assay: Clonogenic cell survival assay (D0.1), MOR; settings: p53 mutant
Procedure: (§3) The growth characteristics clonogenic assay procedures of the 11 human in vitro cell lines used in this analysis have already been reported e.g. in Britten R. A. and Warenius H., Eur. J. Canc. 29A, 1315-1320 (1993). The cell lines are listed, with their histological classification in Table 4. All are well established; many having been growing in vitro for several years. Cell lines were either donations or purchased by our laboratories. On receipt all were grown for 5 passages to provide sufficient cells for batch storage in liquid nitrogen. During this period contamination was excluded by at least one passage in antibiotic free medium and mycoplasma testing was carried out on all lines. For clonogenic assays, cells were taken from a designated primary liquid nitrogen batch and grown for 3-6 passages until there were sufficient well-growing cells. Further batches from these cells were frozen in liquid nitrogen. Cells were routinely maintained in DMEM medium. All lines were supplemented with 10% heat-inactivated foetal calf serum (HIFCS). […]
(§4) In order to assay CDDP sensitivity 10^2-10^5 cells were plated in 3 ml of Ham's F12 medium supplemented with 10% FCS in 6 well plates and incubated at 37° C. in an atmosphere of 5% CO2 for 8 hours. […] The medium was then removed, the cells were fixed in 70% ethanol and stained with 10% Giemsa and colonies of >100 cells counted.

MEL2 = assay: Clonogenic cell survival assay (D0.1), MEL2; settings: MEL2, p53 mutant, undetectable p21; for Absolute D0.1: dose reducing clonogenic survival to 10% of control, 14 days exposure
Procedure: as §1, §2

2780 = assay: Clonogenic cell survival assay (D0.1), 2780; settings: 2780, p53 wild-type, detectable p21; for Absolute D0.1: dose reducing clonogenic survival to 10% of control, 14 days exposure
Procedure: as §1, §2

CORL23 = assay: Clonogenic cell survival assay (D0.1), CORL23; settings: CORL23, p53 wild-type, detectable p21; for Absolute D0.1: dose reducing clonogenic survival to 10% of control, 14 days exposure
Procedure: as §1, §2

RT112 = assay: Clonogenic cell survival assay (D0.1), RT112; settings: RT112, p53 mutant, undetectable p21; for Absolute D0.1: dose reducing clonogenic survival to 10% of control, 14 days exposure
Procedure: as §1, §2

HT29 = assay: Clonogenic cell survival assay (D0.1), HT29; settings: HT29, p53 mutant, undetectable p21; for Absolute D0.1: dose reducing clonogenic survival to 10% of control, 14 days exposure
Procedure: as §1, §2

OAW42 = assay: Clonogenic cell survival assay (D0.1), OAW42; settings: OAW42, p53 wild-type, detectable p21
Procedure: as §3, §4

I407 = assay: Clonogenic cell survival assay (D0.1), I407; settings: 1407 (I407), p53 wild-type, detectable p21; for Absolute D0.1: dose reducing clonogenic survival to 10% of control, 14 days exposure
Procedure: as §1, §2

[1] = absolute D0.1 divided by mean D0.1 of the drug

SMILES | Absolute D0.1 (MGHU1) | Absolute D0.1 (A431) | Absolute D0.1 (HRT18) | Absolute D0.1 (MEL2) | Absolute D0.1 2780 | Absolute D0.1 (CORL23) | Absolute D0.1 (RT112) | Absolute D0.1 (HT29) | Absolute D0.1 (I407) | other results
N.N.[Cl][Pt][Cl] [CDDP, cis-diamminedichloroplatinum] | 0.4494 | 0.306 | 0.864 | 0.457 | 0.255 | 0.338 | 0.237 | 0.632 | 0.06 | Relative D0.1 (MGHU1; [1]): 1.235; Relative D0.1 (A431; [1]): 0.765; Relative D0.1 (HRT18; [1]): 2.16; Relative D0.1 (MOR; undetectable p21, absolute D0.1 divided by mean D0.1 of the drug): 1.573; Absolute D0.1 (MOR; undetectable p21, dose reducing clonogenic survival to 10% of control, 14 days exposure): 0.629; Relative D0.1 (MEL2; [1]): 1.143; Relative D0.1 2780; [1]: 0.637; Relative D0.1 (CORL23; [1]): 0.845; Relative D0.1 (RT112; [1]): 0.593; Relative D0.1 (HT29; [1]): 1.58; Relative D0.1 (OAW42; [1]): 0.27; Absolute D0.1 (OAW42; dose reducing clonogenic survival to 10% of control, 14 days exposure): 0.108; Relative D0.1 (I407; [1]): 0.15
CC(=O)O[C@H]1C(=O)[C@@]2(C)[C@H]([C@H](OC(=O)c3ccccc3)[C@]3(O)C[C@H](OC(=O)[C@H](O)[C@@H](NC(=O)c4ccccc4)c4ccccc4)C(C)=C1C3(C)C)[C@]1(OC(C)=O)CO[C@@H]1C[C@@H]2O [Paclitaxel (TAXOL), Paclitaxel] | 1.144 | 0.823 | 10.415 | 0.57 | 2.113 | 0.497 | 1.523 | 1.106 | 1.504 | 
